{
  "source": "patent US20230312481A1",
  "about": "“SUBSTITUTED (PHTHALAZIN-1-YLMETHYL)UREAS, SUBSTITUTED N-(PHTHALAZIN-1-YLMETHYL)AMIDES, AND ANALOGUES THEREOF” (priority 2020, published 2023)",
  "data": [
    {"test_system": "HBV rcDNA in HepDE19 cells", "experiment": "HepDE19 assay with bDNA quantitation of HBV rcDNA", "assay_type": "cell-based, hepatitis B virus", "settings": "HepDE19 cells, 7 day incubation, rcDNA measured by Quantigene 2.0 bDNA assay; top concentration 25 µM; read-out: DE-19bDNA EC50", "description": "(§1) HepDE19 Assay With bDNA Quantitation of HBV rcDNA\n(§2) HepDE19 (50,000 cells/well) were plated in 96-well collagen-coated tissue-culture treated microtiter plates in DMEM/F12 medium supplemented with 10% fetal bovine serum, 1% penicillin-streptomycin and 1 µg/mL tetracycline and incubated in a humidified incubator at 37° C. and 5% CO2 overnight. Next day, the cells were switched to fresh medium without tetracycline and incubated for 4 hours at 37° C. and 5% CO2. […] The final DMSO concentration in the assay was 0.5%. The plates were incubated for 7 days in a humidified incubator at 37° C. and 5% CO2. Following a 7 day-incubation, the level of rcDNA present in the inhibitor-treated wells was measured using a Quantigene 2.0 bDNA assay kit (Affymetrix, Santa Clara, CA) with HBV specific custom probe set and manufacturers instructions. Concurrently, the effect of compounds on cell viability was assessed using replicate plates, plated at a density of 5,000 cells/well and incubated for 4 days, to determine the ATP content as a measure of cell viability using the cell-titer glo reagent (CTG; Promega Corporation, Madison, WI) as per manufacturer’s instructions.\n(§3) Representative compounds of the disclosure were tested for their abilities to inhibit formation of relaxed circular DNA (rcDNA) in a HepDE19 assay, as described elsewhere herein.", "units": {"EC50": "nM"}, "values": [
      {"smiles": "CC(c1n[nH]c(=O)c2cc(F)c(F)cc12)N(C)C(=O)c1cc(F)c(Br)c(F)c1", "note": "(single isomer, unassigned) [Compound 100, 4-bromo-N-(1-(6,7-difluoro-4-oxo-3,4-dihydrophthalazin-1-yl)ethyl)-3,5-difluoro-N-methylbenzamide]", "EC50": 4690},
      {"smiles": "CC(c1n[nH]c(=O)c2cc(F)c(F)cc12)N(C)C(=O)c1ccc2ocnc2c1", "note": "(single isomer, unassigned) [Compound 88, N-(1-(6,7-difluoro-4-oxo-3,4-dihydrophthalazin-1-yl)ethyl)-N-methylbenzo[d]oxazole-5-carboxamide]", "EC50": "> 25000"},
      {"smiles": "CC(c1n[nH]c(=O)c2cc(F)c(F)cc12)N(C)C(=O)c1cc2c(C(F)F)cccn2c1", "note": "(single isomer, unassigned) [Compound 98, N-(1-(6,7-difluoro-4-oxo-3,4-dihydrophthalazin-1-yl)ethyl)-8-(difluoromethyl)-N-methylindolizine-2-carboxamide]", "EC50": 7440},
      {"smiles": "CC(c1n[nH]c(=O)c2cc(F)c(F)cc12)N(C)C(=O)c1ccc2c(ccn2C)c1", "note": "(single isomer, unassigned) [Compound 107, N-(1-(6,7-difluoro-4-oxo-3,4-dihydrophthalazin-1-yl)ethyl)-N,1-dimethyl-1H-indole-5-carboxamide]", "EC50": 110},
      {"smiles": "CC(c1n[nH]c(=O)c2cc(F)c(F)cc12)N(C)C(=O)c1cc(F)c(Cl)c(F)c1", "note": "(single isomer, unassigned) [Compound 94, 4-chloro-N-(1-(6,7-difluoro-4-oxo-3,4-dihydrophthalazin-1-yl)ethyl)-3,5-difluoro-N-methylbenzamide]", "EC50": 13300},
      {"smiles": "CC(c1n[nH]c(=O)c2cc(F)c(F)cc12)N(C)C(=O)c1cc2sccc2[nH]1", "note": "(single isomer, unassigned) [Compound 81, N-(1-(6,7-difluoro-4-oxo-3,4-dihydrophthalazin-1-yl)ethyl)-N-methyl-4H-thieno[3,2-b]pyrrole-5-carboxamide]", "EC50": 110},
      {"smiles": "CC(c1n[nH]c(=O)c2cc(F)c(F)cc12)N(C)C(=O)c1cnc(C(F)(F)F)c(Cl)c1", "note": "(single isomer, unassigned) [Compound 92, 5-chloro-N-(1-(6,7-difluoro-4-oxo-3,4-dihydrophthalazin-1-yl)ethyl)-N-methyl-6-(trifluoromethyl)nicotinamide]", "EC50": "> 25000"},
      {"smiles": "CC(C)CN(C(=O)Nc1ccc(F)c(Cl)c1)C(C)c1n[nH]c(=O)c2ccccc12", "note": "(single isomer, unassigned) [Compound 5, 3-(3-chloro-4-fluoro-phenyl)-1-isobutyl-1-[1-(4-oxo-3H-phthalazin-1-yl)ethyl]urea]", "EC50": 10},
      {"smiles": "CC(C)CN(C(=O)Nc1ccc(F)c(Cl)c1)C(C)c1n[nH]c(=O)c2ccccc12", "note": "(single isomer, unassigned) [Compound 6, 3-(3-chloro-4-fluoro-phenyl)-1-isobutyl-1-[1-(4-oxo-3H-phthalazin-1-yl)ethyl]urea]", "EC50": 1700},
      {"smiles": "CC(c1n[nH]c(=O)c2cc(F)c(F)cc12)N(C)C(=O)c1ccc2c(ccn2C)c1", "note": "(single isomer, unassigned) [Compound 106, N-(1-(6,7-difluoro-4-oxo-3,4-dihydrophthalazin-1-yl)ethyl)-N,1-dimethyl-1H-indole-5-carboxamide]", "EC50": 4030},
      {"smiles": "CC(c1n[nH]c(=O)c2cc(F)c(F)cc12)N(C)C(=O)c1cc(F)c(Cl)c(F)c1", "note": "(single isomer, unassigned) [Compound 95, 4-chloro-N-(1-(6,7-difluoro-4-oxo-3,4-dihydrophthalazin-1-yl)ethyl)-3,5-difluoro-N-methylbenzamide]", "EC50": 80},
      {"smiles": "CC(c1n[nH]c(=O)c2cc(F)c(F)cc12)N(C)C(=O)c1ccc2[nH]ncc2c1", "note": "(single isomer, unassigned) [Compound 111, N-(1-(6,7-difluoro-4-oxo-3,4-dihydrophthalazin-1-yl)ethyl)-N-methyl-1H-indazole-5-carboxamide]", "EC50": 8880},
      {"smiles": "CC(c1n[nH]c(=O)c2cc(F)c(F)cc12)N(C)C(=O)c1ccc2c(c1)CCC2", "note": "(single isomer, unassigned) [Compound 83, N-(1-(6,7-difluoro-4-oxo-3,4-dihydrophthalazin-1-yl)ethyl)-N-methyl-2,3-dihydro-1H-indene-5-carboxamide]", "EC50": 80}
    ]},
    {"test_system": "HBV rcDNA in HepDE19 cells", "experiment": "HepDE19 assay with bDNA quantitation of HBV rcDNA", "assay_type": "cell-based, hepatitis B virus", "settings": "Hepatitis B virus, HepDE19, 168 h, HepDE19 cells, 7 day incubation, rcDNA measured by Quantigene 2.0 bDNA assay; top concentration 25 µM; read-out: DE-19bDNA EC50", "description": "as §1, §2, §3", "units": {"EC50": "nM"}, "values": [
      {"smiles": "CC(c1n[nH]c(=O)c2cc(F)c(F)cc12)N(C)C(=O)c1ccc(Cl)c(F)c1", "note": "(racemic) [Compound 64, 4-chloro-N-(1-(6,7-difluoro-4-oxo-3,4-dihydrophthalazin-1-yl)ethyl)-3-fluoro-N-methylbenzamide]", "EC50": 140},
      {"smiles": "CC(c1n[nH]c(=O)c2cc(F)c(F)cc12)N(C)C(=O)Nc1ccc(F)c(Cl)c1", "note": "(racemic) [Compound 29, 3-(3-chloro-4-fluorophenyl)-1-(1-(6,7-difluoro-4-oxo-3,4-dihydrophthalazin-1-yl)ethyl)-1-methylurea]", "EC50": 23},
      {"smiles": "CC(c1n[nH]c(=O)c2cc(F)c(F)cc12)N(C)C(=O)c1cc2c(F)cccc2[nH]1", "note": "(racemic) [Compound 53, N-(1-(6,7-difluoro-4-oxo-3,4-dihydrophthalazin-1-yl)ethyl)-4-fluoro-N-methyl-1H-indole-2-carboxamide]", "EC50": 83},
      {"smiles": "CC(c1n[nH]c(=O)c2cc(F)ccc12)N(C)C(=O)Nc1ccc(F)c(Cl)c1", "note": "(racemic) [Compound 17, 3-(3-chloro-4-fluorophenyl)-1-(1-(6-fluoro-4-oxo-3,4-dihydrophthalazin-1-yl)ethyl)-1-methylurea]", "EC50": 81},
      {"smiles": "CC(c1n[nH]c(=O)c2cc(Cl)ccc12)N(CCCO)C(=O)Nc1ccc(F)c(Cl)c1", "note": "(racemic) [Compound 13, 3-(3-chloro-4-fluorophenyl)-1-(1-(6-chloro-4-oxo-3,4-dihydrophthalazin-1-yl)ethyl)-1-(3-hydroxypropyl)urea]", "EC50": 22},
      {"smiles": "CC(c1n[nH]c(=O)c2cc(F)c(F)cc12)N(C)C(=O)c1cc2ccc(F)cc2[nH]1", "note": "(racemic) [Compound 52, N-(1-(6,7-difluoro-4-oxo-3,4-dihydrophthalazin-1-yl)ethyl)-6-fluoro-N-methyl-1H-indole-2-carboxamide]", "EC50": 43},
      {"smiles": "CC(c1n[nH]c(=O)c2cc(F)c(F)cc12)N(C)C(=O)c1cccc(C(F)F)c1", "note": "(racemic) [Compound 71, N-(1-(6,7-difluoro-4-oxo-3,4-dihydrophthalazin-1-yl)ethyl)-3-(difluoromethyl)-N-methylbenzamide]", "EC50": 220},
      {"smiles": "CC(C)CN(C(=O)Nc1ccc(F)cc1)C(C)c1n[nH]c(=O)c2cc(Cl)ccc12", "note": "(racemic) [Compound 11, 1-(1-(6-chloro-4-oxo-3,4-dihydrophthalazin-1-yl)ethyl)-3-(4-fluorophenyl)-1-isobutylurea]", "EC50": 40},
      {"smiles": "CC(c1n[nH]c(=O)c2c(F)cccc12)N(C)C(=O)Nc1ccc(F)c(Cl)c1", "note": "(centres unmarked) [Compound 44, 3-(3-chloro-4-fluorophenyl)-1-(1-(5-fluoro-4-oxo-3,4-dihydrophthalazin-1-yl)ethyl)-1-methylurea]", "EC50": 290},
      {"smiles": "CC(c1n[nH]c(=O)c2cc(F)c(F)cc12)N(C)C(=O)c1cc2c(F)c(F)ccc2[nH]1", "note": "(racemic) [Compound 54, N-(1-(6,7-difluoro-4-oxo-3,4-dihydrophthalazin-1-yl)ethyl)-4,5-difluoro-N-methyl-1H-indole-2-carboxamide]", "EC50": 24},
      {"smiles": "C[C@@H](c1n[nH]c(=O)c2cc(F)c(F)cc12)N(C)C(=O)Nc1ccc(F)c(Cl)c1", "note": "[Compound 31, 3-(3-chloro-4-fluorophenyl)-1-(1-(6,7-difluoro-4-oxo-3,4-dihydrophthalazin-1-yl)ethyl)-1-methylurea]", "EC50": 1800}
    ]},
    {"test_system": "HBV rcDNA in HepDE19 cells", "experiment": "HepDE19 assay with bDNA quantitation of HBV rcDNA", "assay_type": "cell-based, hepatitis B virus", "settings": "Hepatitis B virus, HepDE19, 168 h, read-out: DE-19bDNA EC50", "description": "as §1, §2, §3", "units": {"EC50": "nM"}, "values": [
      {"smiles": "C[C@H](c1n[nH]c(=O)c2cc(F)c(F)cc12)N(C)C(=O)Nc1ccc(F)c(F)c1", "note": "[Compound 41, (R)(1-(6,7-difluoro-4-oxo-3,4-dihydrophthalazinyl)ethyl)methyl-3-(3,4-difluorophenyl)urea]", "EC50": 24},
      {"smiles": "C[C@H](c1n[nH]c(=O)c2cc(F)c(F)cc12)N(C)C(=O)c1cc2c([nH]1)CCCC2", "note": "[Compound 58, (R)-N-(1-(6,7-difluoro-4-oxo-3,4-dihydrophthalazin-1-yl)ethyl)-N-methyl-4,5,6,7-tetrahydro-1H-indole-2-carboxamide]", "EC50": 120},
      {"smiles": "CC(C)CN(C(=O)NC1CCCC1)C(C)c1nn(C)c(=O)c2cc(F)c(F)cc12", "note": "(racemic) [Compound 35, 3-cyclopentyl-1-(1-(6,7-difluoro-3-methyl-4-oxo-3,4-dihydrophthalazin-1-yl)ethyl)-1-isobutylurea]", "EC50": 6900},
      {"smiles": "CC(c1n[nH]c(=O)c2cc(F)c(F)cc12)N(C)C(=O)c1cc2cc(F)ccc2[nH]1", "note": "(racemic) [Compound 51, N-(1-(6,7-difluoro-4-oxo-3,4-dihydrophthalazin-1-yl)ethyl)-5-fluoro-N-methyl-1H-indole-2-carboxamide]", "EC50": 39},
      {"smiles": "CC(C)CN(C(=O)Nc1ccccc1)C(C)c1n[nH]c(=O)c2cc(F)c(F)cc12", "note": "(centres unmarked) [Compound 40, 1-(1-(6,7-difluoro-4-oxo-3,4-dihydrophthalazin-1-yl)ethyl)-1-isobutyl-3-phenylurea]", "EC50": 17}
    ]}
  ]
}
